≈ marks a conversion by molar mass, not a printed value. Where two headings read alike, the source gives them in different places. Where a SMILES comes first, the peptide text is derived from it. [ ]: non-standard residue; d: D form. Phe(4-CF3) = N[C@@H](Cc1ccc(C(F)(F)F)cc1)C(=O)O; Bip = N[C@@H](Cc1ccc(-c2ccccc2)cc1)C(=O)O; 2Nal = N[C@@H](Cc1ccc2ccccc2c1)C(=O)O
Experiments:
[1] = test system: E. faecium ATCC51559; assay type: cell-based, Enterococcus faecium
Experimental: (§1) The antibacterial activities of the peptides were determined using the standard broth microdilution method (Mishra et al. (2012) J. Am. Chem. Soc., 134:12426-12429; Wang et al. (2005) Biol. Chem., 280:5803-5811). Briefly, the bacterial culture was treated with a series of peptide solutions, each with two-fold dilution. After overnight incubation at 37° C., the microplate was read on a ChroMate® 4300 Microplate Reader at 630 nm (GMI, Ramsey, Minn.).

[2] = test system: A. baumannii B2367-12; assay type: cell-based, Acinetobacter baumanii
Experimental: as §1

[3] = test system: Pseudomonas aeruginosa PAO1; assay type: cell-based
Experimental: The bacterial strains used in the study are Bacillus subtilis 168, methicillin-resistant Staphylococcus aureus USA300 LAC (Gram-positive), Escherichia coli K12, and Pseudomonas aeruginosa PAO1 (Gram negative). The antibacterial activities of the peptides were determined using the standard broth microdilution method (Wang et al. (2005) J. Biol. Chem., 280:5803-5811). In brief, the bacterial culture (90 μL) was treated with a series of peptide solutions (10 μL), each with two-fold dilution. After overnight incubation at 37° C., the microplate was read on a ChroMate® 4300 Microplate Reader at 630 nm (GMI, Ramsey, Minn.).
For the initial screen, antimicrobial activities of these peptides against S. aureus and E. coli were evaluated using the standard broth microdilution protocol (Wang, G. (2008) J. Biol. Chem., 283:32637-43). […] Subsequently, the in vitro activity of these six peptides was evaluated against Bacillus subtilis and Pseudomonas aeruginosa (Table 6). […] While maculatin 1.3 is active against two Gram-positive but not two Gram-negative bacterial strains, DASamP1 is species-specific since it active only against S. aureus. The finding that ascaphin-8, […], and piscidin 1 are wide-spectrum AMPs agrees with the literature (Apponyi et al. (2004) Peptides 25:1035-1054; Conlon et al. (2004) Biochem. Biophys. Res. Commun., 320:170-175; Silphaduang et al. (2001) Nature 414:268-269; Souza et al. (2005) J. Immunol., 186:6585-6596). For lycotoxin I, it was previously found to active against Gram-negative E. coli and yeast (Yan et al. (1998) J. Biol. Chem., 273:2059-2066).
as §1

[4] = test system: human erythrocytes; settings: for HL50 (μM), peptide concentration that causes 50% lysis of human erythrocytes: Table 10; for hemolysis: human, 160 µM
Experimental: (§2) Peptide hemolysis was assayed using an established protocol (Malmsten et al. (2011) PLoS One 6:e16400). In brief, fresh blood, obtained from the UNMC Blood Bank, was washed three times with PBS buffer and made into a 5% solution. To 90 μL of this solution, 10 μL of a peptide solution was added and incubated at 37° C. for one hour. After centrifugation at 13,000 rpm, aliquots of the supernatant were transferred to a fresh 96 well microplate. The absorbance of the solutions was measured at 545 nm to detect the amount of hemoglobin released. The percent lysis was calculated by assuming 100% release when treated with 2% Triton X-100 and no lysis (0%) when treated with PBS buffer. HL50 was the peptide concentration that caused 50% lysis of human erythrocytes. The cell selectivity (CS) indexes were calculated as the ratio of HL50 to the MIC of the peptide against S. aureus USA300.
(§3) The hemolytic effects of the six peptides were also compared on human red blood cells (hRBC) using an established protocol (Malmsten et al. (2011) PLoS One 6:e16400). […] A high TI indicates good cell selectivity.
(§4) Peptide hemolysis was assayed using an established protocol (Menousek et al. (2012) Int. J. Antimicrob. Agents 39:402-406; Malmsten et al. (2011) PLoS One 6:e16400). Briefly, blood cells were washed three times with phosphate-buffered saline (PBS) and were diluted to a 5% solution. Following peptide treatment, incubation at 37° C. for 1 hour and centrifugation at 13,000 rpm, aliquots of the supernatant were transferred to a fresh 96-well microplate. To assess peptide cytotoxicity, the amount of hemoglobin released was measured at 545 nm. Percent lysis was calculated by assuming 100% release when human blood cells were treated with 2% Triton X-100 and 0% release when they were incubated with PBS buffer.

[5] = test system: methicillin-resistant Staphylococcus aureus USA300 LAC; settings: for MIC (μM) SA: S. aureus USA300 LAC, Table 10; for S. aureus USA 300 MIC: Table 8
Experimental: This was done by modifying the standard microdilution antimicrobial assays (Wang, G. (2008) J. Biol. Chem., 283:32637-32643). Specifically, the bacterial wells with a high peptide concentration (e.g. 100 μM) are duplicated (e.g., two for antimicrobial assays and two for protease stability assays). As an illustration, chymotrypsin was applied to the duplicated wells at a peptide:protease molar ratio of 25:1.

[6] = test system: E. cloacae B2366-12; assay type: cell-based
Experimental: as §1

[7] = test system: ESKAPE pathogens; assay type: cell-based
Experimental: as §1
A rational design was conducted on the basis of the 3D structure of GF-17d3. […] The noncoherent packing of the GF-17d3 side chains caused a hydrophobic defect in the structure (FIGS. 8C and 8D, arrow), leading to reduced hydrophobicity. Accordingly, it was hypothesized that the antimicrobial activity of this peptide 17F2 (sequence GX1KRLVQRLKDX2LRNLV (SEQ ID NO: 58), Table 9) could be enhanced by filling in the hydrophobic cavity (FIG. 8D, arrow) with a larger hydrophobic side chain. The antimicrobial activities of these peptide analogues were evaluated using the standard microdilution assays (Mishra et al. (2012) J. Am. Chem. Soc., 134:12426-12429), and the minimal inhibitory concentrations (MIC) against a panel of the ESKAPE pathogens are provided in Table 10. […] To compare the two sites, these two substitutions at positions X1 and X2 were swapped to obtain 17Naph-mF. […] In addition, biphenylalanines were incorporated at position X1 alone or at both X1 and X2 of the 17F2 template. […] The killing abilities of these peptides are essentially proportional to their MIC values as well as retention times (a measure of hydrophobicity) on a reverse-phase HPLC column (Mishra et al. (2012) J. Am. Chem. Soc., 134:12426-12429).

[8] = test system: Escherichia coli K12; settings: Table 8
[9] = human, hemolysis, at 160 μM, human red blood cells
Experimental: as §2, §3, §4

| Compound | MIC (μM) EF ([1]; ATCC51559) [µM] | MIC (μM) AB [2] [µM] | MIC (μM) PA [3] [µM] | HL50 (μM), peptide concentration that causes 50% lysis of human erythrocytes [4] [µM] | MIC (μM) SA [5] [µM] | MIC (μM) EC ([6]; E. cloacae B2366-12) [µM] | MIC (μM) EC ([6]; B2366-12) [µM] | MIC against E. coli, A. baumannii, and E. cloacae ([7]; E. coli, A. baumannii, and E. cloacae) [µM] | E. coli K12 MIC [8] [µM] | hemolysis [4] [%] | hemolysis at 160 µM [9] [%] | S. aureus USA 300 MIC [5] [µM] | MICs against most of the ESKAPE strains ([7]; most of the ESKAPE strains) [µM] | MIC (μM) EF ([1]; E. faecium ATCC51559) [µM] |
| --- | --- | --- | --- | --- | --- | --- | --- | --- | --- | --- | --- | --- | --- | --- |
| CC(C)C[C@H](NC(=O)[C@H](CC(N)=O)NC(=O)[C@H](CCCNC(=N)N)NC(=O)[C@@H](CC(C)C)NC(=O)[C@H](Cc1ccc2ccccc2c1)NC(=O)[C@H](CC(=O)O)NC(=O)[C@H](CCCCN)NC(=O)[C@@H](CC(C)C)NC(=O)[C@H](CCCNC(=N)N)NC(=O)[C@H](CCC(N)=O)NC(=O)[C@@H](NC(=O)[C@@H](CC(C)C)NC(=O)[C@H](CCCNC(=N)N)NC(=O)[C@H](CCCCN)NC(=O)[C@H](Cc1ccccc1)NC(=O)CN)C(C)C)C(=O)N[C@H](C(N)=O)C(C)C [17F-Naph, GX1KRLVQRLKDX2LRNLV] (H-GFKR[dL]VQR[dL]KD[2Nal][dL]RNLV-NH2) | 3.1 (≈ 6.67 µg/mL) | 3.1 (≈ 6.67 µg/mL) | 12.5 (≈ 26.9 µg/mL) | >900 | 25 (≈ 53.8 µg/mL) | 12.5 (≈ 26.9 µg/mL) | – | – | – | – | – | – | – | – |
| CC(C)C[C@H](NC(=O)[C@H](CC(N)=O)NC(=O)[C@H](CCCNC(=N)N)NC(=O)[C@@H](CC(C)C)NC(=O)[C@H](Cc1ccc(C(F)(F)F)cc1)NC(=O)[C@H](CC(=O)O)NC(=O)[C@H](CCCCN)NC(=O)[C@@H](CC(C)C)NC(=O)[C@H](CCCNC(=N)N)NC(=O)[C@H](CCC(N)=O)NC(=O)[C@@H](NC(=O)[C@@H](CC(C)C)NC(=O)[C@H](CCCNC(=N)N)NC(=O)[C@H](CCCCN)NC(=O)[C@H](Cc1ccc2ccccc2c1)NC(=O)CN)C(C)C)C(=O)N[C@H](C(N)=O)C(C)C [17Naph-mF, GX1KRLVQRLKDX2LRNLV] (H-G[2Nal]KR[dL]VQR[dL]KD[Phe(4-CF3)][dL]RNLV-NH2) | 3.1 (≈ 6.88 µg/mL) | 3.1 (≈ 6.88 µg/mL) | 6.2 to 12.5 | 950 | 6.2 (≈ 13.8 µg/mL) | 6.2 to 12.5 | – | – | – | – | – | – | – | – |
| CC(C)C[C@H](NC(=O)[C@H](CC(N)=O)NC(=O)[C@H](CCCNC(=N)N)NC(=O)[C@@H](CC(C)C)NC(=O)[C@H](Cc1ccc2ccccc2c1)NC(=O)[C@H](CC(=O)O)NC(=O)[C@H](CCCCN)NC(=O)[C@@H](CC(C)C)NC(=O)[C@H](CCCNC(=N)N)NC(=O)[C@H](CCC(N)=O)NC(=O)[C@@H](NC(=O)[C@@H](CC(C)C)NC(=O)[C@H](CCCNC(=N)N)NC(=O)[C@H](CCCCN)NC(=O)[C@H](Cc1ccc(C(F)(F)F)cc1)NC(=O)CN)C(C)C)C(=O)N[C@H](C(N)=O)C(C)C [17mF-Naph, GX1KRLVQRLKDX2LRNLV] (H-G[Phe(4-CF3)]KR[dL]VQR[dL]KD[2Nal][dL]RNLV-NH2) | 3.1 (≈ 6.88 µg/mL) | 3.1 (≈ 6.88 µg/mL) | 6.2 to 12.5 | 500 | 6.2 (≈ 13.8 µg/mL) | – | 6.2 (≈ 13.8 µg/mL) | – | – | – | – | – | – | – |
| CC(C)C[C@H](NC(=O)[C@H](CC(N)=O)NC(=O)[C@H](CCCNC(=N)N)NC(=O)[C@@H](CC(C)C)NC(=O)[C@H](Cc1ccccc1)NC(=O)[C@H](CC(=O)O)NC(=O)[C@H](CCCCN)NC(=O)[C@@H](CC(C)C)NC(=O)[C@H](CCCNC(=N)N)NC(=O)[C@H](CCC(N)=O)NC(=O)[C@@H](NC(=O)[C@@H](CC(C)C)NC(=O)[C@H](CCCNC(=N)N)NC(=O)[C@H](CCCCN)NC(=O)[C@H](Cc1ccccc1)NC(=O)CN)C(C)C)C(=O)N[C@H](C(N)=O)C(C)C [A128A, GX1KRLVQRLKDX2LRNLV-amide] (H-GFKR[dL]VQR[dL]KDF[dL]RNLV-NH2) | – | 6.2 to 12.5 | – | – | – | – | 25 (≈ 52.5 µg/mL) | 6.2 to 25 | 10 | <3 | 3 to 5 | > 160 | – | – |
| CC(C)C[C@H](NC(=O)[C@H](CC(N)=O)NC(=O)[C@H](CCCNC(=N)N)NC(=O)[C@@H](CC(C)C)NC(=O)[C@H](Cc1ccccc1)NC(=O)[C@H](CC(=O)O)NC(=O)[C@H](CCCCN)NC(=O)[C@@H](CC(C)C)NC(=O)[C@H](CCCNC(=N)N)NC(=O)[C@H](CCC(N)=O)NC(=O)[C@@H](NC(=O)[C@@H](CC(C)C)NC(=O)[C@H](CCCNC(=N)N)NC(=O)[C@H](CCCCN)NC(=O)[C@H](Cc1ccc(C(F)(F)F)cc1)NC(=O)CN)C(C)C)C(=O)N[C@H](C(N)=O)C(C)C [B128A, GX1KRLVQRLKDX2LRNLV-amide] (H-G[Phe(4-CF3)]KR[dL]VQR[dL]KDF[dL]RNLV-NH2) | 25 to 50 | 3.1 to 6.2 | 25 (≈ 54.2 µg/mL) | >900 | 25 (≈ 54.2 µg/mL) | – | 25 (≈ 54.2 µg/mL) | – | 5 | <5 | 3 to 5 | 40 | 25 to 50 | – |
| CC(C)C[C@H](NC(=O)[C@H](CC(N)=O)NC(=O)[C@H](CCCNC(=N)N)NC(=O)[C@@H](CC(C)C)NC(=O)[C@H](Cc1ccccc1)NC(=O)[C@H](CC(=O)O)NC(=O)[C@H](CCCCN)NC(=O)[C@@H](CC(C)C)NC(=O)[C@H](CCCNC(=N)N)NC(=O)[C@H](CCC(N)=O)NC(=O)[C@@H](NC(=O)[C@@H](CC(C)C)NC(=O)[C@H](CCCNC(=N)N)NC(=O)[C@H](CCCCN)NC(=O)[C@H](Cc1ccc(-c2ccccc2)cc1)NC(=O)CN)C(C)C)C(=O)N[C@H](C(N)=O)C(C)C [C128A, GX1KRLVQRLKDX2LRNLV-amide] (H-G[Bip]KR[dL]VQR[dL]KDF[dL]RNLV-NH2) | – | 3.1 (≈ 6.75 µg/mL) | 12.5 (≈ 27.2 µg/mL) | >900 | 12.5 (≈ 27.2 µg/mL) | 12.5 (≈ 27.2 µg/mL) | – | – | 5 | <5 | 3 to 5 | 40 | – | 12.5 (≈ 27.2 µg/mL) |

Reference: patent publication US10723764B2, “Anti-microbial peptides and methods of use thereof” (priority 2011, dated 2020)
